Test results taken from the supplement of paper PMC9912026.

System: A375_Cra_F7_5/13
Experiment: pERK immunofluorescence, normalised; higher = more ERK phosphorylation
Settings: vemurafenib 0 µM, EGF 100 ng/mL, drug treatment time 24 h
Method: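 A375 or A375 CRISPRa-EGFR (A375_Cra_F7_5/13) cells were adapted for 24 h to a cobimetinib dose series, with or without 1 uM vemurafenib, then stimulated with EGF (100 ng/mL) or mock medium and fixed at the indicated times. pERK was measured by immunofluorescence as the population mean normalised to baseline, with the SD of technical replicates (n=2).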

O=C(c1ccc(F)c(F)c1Nc1ccc(I)cc1F)N1CC(O)([C@@H]2CCCCN2)C1 [cobimetinib]
pERK immunofluorescence
Settings	cobimetinib 31.62 pM	cobimetinib 0.0001 µM	cobimetinib 0.000316228 µM	cobimetinib 0.001 µM	cobimetinib 0.003162278 µM	cobimetinib 0.01 µM	cobimetinib 0.031622777 µM	cobimetinib 0.1 µM	cobimetinib 0.316227766 µM	cobimetinib 1 µM
time after EGF/mock 0.083 h	1.47	1.44	1.43	1.42	1.37	1.27	1.15	0.883	0.31	0.111
time after EGF/mock 0.5 h	1.35	1.34	1.31	1.36	1.32	1.26	1.15	1.02	0.675	0.179
time after EGF/mock 2 h	1.21	1.194	1.14	1.08	0.926	0.7446	0.65813	0.527	0.341	0.137
time after EGF/mock 8 h	0.99	0.999	0.997	0.8777	0.735	0.5778	0.475	0.3675	0.221	0.1
time after EGF/mock 24 h	1.07	1.08	1.084	1.04	0.902	0.689	0.5819	0.465	0.273	0.107
